According to ChEMBL document CHEMBL6182925 (J Med Chem, 2025):
Converted amounts (≈) assume the structure as drawn.

How the values were obtained:
[1] = Oral bioavailability in mouse; assay type: ADME, organism-based; details: in vivo
[2] = Kinetic solubility of compound at pH 2; assay type: physicochemical; details: buffer, read-out: Kinetic_solubility
[3] = cells; details: Mus musculus, BaF3/TRP-Met, 72 h
[4] = Kinetic solubility of compound at pH 4.5; assay type: physicochemical; details: buffer, read-out: Kinetic_solubility
[5] = target: hERG (Homo sapiens, UniProt Q12809); assay: Inhibition of hERG at 10 uM by CEREP analysis relative to control; assay type: toxicity
[6] = target: 5-hydroxytryptamine receptor 1B (Homo sapiens) (UniProt P28222); assay: Inhibition of 5-HT1B receptor (unknown origin) at 10 uM by CEREP analysis relative to control
5-hydroxytryptamine receptor 1B (Homo sapiens), sequence (P28222 whole entry): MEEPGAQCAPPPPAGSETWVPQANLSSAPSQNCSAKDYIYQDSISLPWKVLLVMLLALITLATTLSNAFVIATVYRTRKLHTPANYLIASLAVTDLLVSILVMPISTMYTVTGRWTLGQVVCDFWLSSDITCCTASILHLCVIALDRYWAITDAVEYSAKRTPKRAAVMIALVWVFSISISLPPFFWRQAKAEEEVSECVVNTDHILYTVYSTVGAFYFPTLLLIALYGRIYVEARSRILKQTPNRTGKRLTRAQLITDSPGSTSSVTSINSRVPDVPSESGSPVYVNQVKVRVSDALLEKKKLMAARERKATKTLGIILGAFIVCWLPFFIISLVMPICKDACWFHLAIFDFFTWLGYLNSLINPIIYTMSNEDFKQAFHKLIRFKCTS

[7] = target: L-type calcium channel (Homo sapiens, UniProt O60840+Q01668+Q13698+Q13936); assay: Inhibition of Calcium channel L-type (unknown origin) at 10 uM by CEREP analysis relative to control; assay type: protein assay
[8] = organism: Homo sapiens; assay: Inhibition of sodium channel site 2 (unknown origin) at 10 uM by CEREP analysis relative to control
[9] = target: 3',5'-cyclic-AMP phosphodiesterase 4D (Homo sapiens) (UniProt Q08499); assay: Inhibition of PDE4D2 (unknown origin) at 10 uM by CEREP analysis relative to control
3',5'-cyclic-AMP phosphodiesterase 4D (Homo sapiens), sequence (Q08499 whole entry): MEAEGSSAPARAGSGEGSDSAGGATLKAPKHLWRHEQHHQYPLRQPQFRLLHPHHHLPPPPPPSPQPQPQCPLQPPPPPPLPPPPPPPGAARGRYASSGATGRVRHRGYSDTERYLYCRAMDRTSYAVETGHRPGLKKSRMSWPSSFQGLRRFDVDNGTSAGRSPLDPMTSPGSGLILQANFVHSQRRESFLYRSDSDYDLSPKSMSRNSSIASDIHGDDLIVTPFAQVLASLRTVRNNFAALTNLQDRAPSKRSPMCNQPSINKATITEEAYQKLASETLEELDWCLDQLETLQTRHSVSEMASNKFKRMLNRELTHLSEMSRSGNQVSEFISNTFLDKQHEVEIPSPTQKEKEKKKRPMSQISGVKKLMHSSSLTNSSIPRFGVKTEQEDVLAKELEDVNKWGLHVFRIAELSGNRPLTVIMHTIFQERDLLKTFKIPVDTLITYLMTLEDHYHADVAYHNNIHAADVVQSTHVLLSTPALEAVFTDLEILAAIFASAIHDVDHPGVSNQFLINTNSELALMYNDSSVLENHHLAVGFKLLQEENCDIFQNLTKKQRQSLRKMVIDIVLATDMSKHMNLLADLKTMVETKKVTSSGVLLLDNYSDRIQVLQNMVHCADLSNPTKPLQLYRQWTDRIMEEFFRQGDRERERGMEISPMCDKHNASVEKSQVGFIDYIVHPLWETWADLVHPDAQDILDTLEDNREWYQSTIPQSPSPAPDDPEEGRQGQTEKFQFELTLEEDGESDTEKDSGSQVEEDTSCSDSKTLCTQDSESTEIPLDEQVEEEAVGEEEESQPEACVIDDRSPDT

[10] = target: 5-hydroxytryptamine receptor 2B (Homo sapiens) (UniProt P41595); assay: Inhibition of 5-HT2B receptor (unknown origin) at 10 uM by CEREP analysis relative to control
[11] = target: Sodium-dependent serotonin transporter (Homo sapiens) (UniProt P31645); assay: Inhibition of SERT (unknown origin) at 10 uM by CEREP analysis relative to control
[12] = target: T1, Alpha-2A adrenergic receptor (Homo sapiens) (UniProt P08913); assay: Inhibition of alpha 2A adrenergic receptor (unknown origin) at 10 uM by CEREP analysis relative to control
T1 sequence (whole entry): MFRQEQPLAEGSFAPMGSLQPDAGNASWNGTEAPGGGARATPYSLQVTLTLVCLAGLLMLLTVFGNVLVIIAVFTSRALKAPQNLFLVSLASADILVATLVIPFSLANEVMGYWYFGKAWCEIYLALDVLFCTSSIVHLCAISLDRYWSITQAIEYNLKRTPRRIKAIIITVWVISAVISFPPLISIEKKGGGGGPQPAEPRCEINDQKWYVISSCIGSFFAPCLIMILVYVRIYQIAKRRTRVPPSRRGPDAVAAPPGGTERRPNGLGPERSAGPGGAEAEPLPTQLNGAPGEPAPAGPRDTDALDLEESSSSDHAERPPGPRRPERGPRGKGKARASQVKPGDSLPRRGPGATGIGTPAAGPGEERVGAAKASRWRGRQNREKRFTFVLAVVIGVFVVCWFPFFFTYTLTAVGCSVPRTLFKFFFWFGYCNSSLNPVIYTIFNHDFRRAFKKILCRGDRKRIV

[13] = tested on: BaF3; assay: cells; details: Mus musculus, BaF3, 72 h
[14] = target: T2, Muscarinic acetylcholine receptor M2 (Homo sapiens) (UniProt P08172); assay: Inhibition of muscarinic M2 receptor (unknown origin) at 10 uM by CEREP analysis relative to control
T2 sequence (whole entry): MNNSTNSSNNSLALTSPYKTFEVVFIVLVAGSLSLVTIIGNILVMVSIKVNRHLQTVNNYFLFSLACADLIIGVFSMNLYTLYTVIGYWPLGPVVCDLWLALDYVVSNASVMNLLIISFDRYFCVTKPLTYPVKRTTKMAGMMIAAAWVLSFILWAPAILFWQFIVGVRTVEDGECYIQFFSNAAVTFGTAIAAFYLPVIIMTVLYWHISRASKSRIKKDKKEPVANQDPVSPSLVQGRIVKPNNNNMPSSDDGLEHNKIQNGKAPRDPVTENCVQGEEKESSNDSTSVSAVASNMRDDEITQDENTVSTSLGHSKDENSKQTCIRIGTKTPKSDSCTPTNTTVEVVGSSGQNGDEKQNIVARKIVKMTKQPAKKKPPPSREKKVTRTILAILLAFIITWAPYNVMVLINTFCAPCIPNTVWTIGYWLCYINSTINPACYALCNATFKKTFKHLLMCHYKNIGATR

[15] = target: cGMP-inhibited 3',5'-cyclic phosphodiesterase 3A (Homo sapiens) (UniProt Q14432); assay: Inhibition of PDE3A (unknown origin) at 10 uM by CEREP analysis relative to control
[16] = Clearance in mouse; assay type: ADME, organism-based; details: in vivo
[17] = tested on: BaF3; assay: cells; details: Mus musculus, BaF3, 72 h; remark: listed apart in the source
[18] = tested on: BaF3; assay: cells; details: Mus musculus, BaF3, 72 h; remark: listed apart in the source
[19] = tested on: BaF3; assay: cells; details: Mus musculus, BaF3, 72 h; remark: listed apart in the source
[20] = tested on: BaF3; assay: cells; details: Mus musculus, BaF3, 72 h; remark: listed apart in the source
[21] = tested on: BaF3; assay: cells; details: Mus musculus, BaF3, 72 h; remark: listed apart in the source
[22] = tested on: BaF3; assay: cells; details: Mus musculus, BaF3, 72 h; remark: listed apart in the source
[23] = tested on: BaF3; assay: cells; details: Mus musculus, BaF3, 72 h; remark: listed apart in the source
[24] = tested on: BaF3; assay: cells; details: Mus musculus, BaF3, 72 h; remark: listed apart in the source
[25] = tested on: BaF3; assay: cells; details: Mus musculus, BaF3, 72 h; remark: listed apart in the source
[26] = tested on: BaF3; assay: cells; details: Mus musculus, BaF3, 72 h; remark: listed apart in the source
[27] = tested on: BaF3; assay: cells; details: Mus musculus, BaF3, 72 h; remark: listed apart in the source
[28] = tested on: BaF3; assay: cells; details: Mus musculus, BaF3, 72 h; remark: listed apart in the source
[29] = tested on: BaF3; assay: cells; details: Mus musculus, BaF3, 72 h; remark: listed apart in the source
[30] = target: Hepatocyte growth factor receptor (Homo sapiens, UniProt P08581); assay: (§1) Inhibition of N-terminal GST-tagged wild-type human c-MET (956 to 1390 residues) extracted from baculovirus infected Sf21 cells using 5-FAM-KKKKEEIYFFF-CONH2 as substrate preincubated for 30 mins followed by ATP addition measured after 60 mins by fluorescence-based microfluidic mobility shift assay
[31] = target: Vascular endothelial growth factor receptor 2 (Homo sapiens, UniProt P35968); assay: Inhibition of KDR (unknown origin) by fluorescence-based microfluidic mobility shift assay
Vascular endothelial growth factor receptor 2, sequence (P35968 whole entry): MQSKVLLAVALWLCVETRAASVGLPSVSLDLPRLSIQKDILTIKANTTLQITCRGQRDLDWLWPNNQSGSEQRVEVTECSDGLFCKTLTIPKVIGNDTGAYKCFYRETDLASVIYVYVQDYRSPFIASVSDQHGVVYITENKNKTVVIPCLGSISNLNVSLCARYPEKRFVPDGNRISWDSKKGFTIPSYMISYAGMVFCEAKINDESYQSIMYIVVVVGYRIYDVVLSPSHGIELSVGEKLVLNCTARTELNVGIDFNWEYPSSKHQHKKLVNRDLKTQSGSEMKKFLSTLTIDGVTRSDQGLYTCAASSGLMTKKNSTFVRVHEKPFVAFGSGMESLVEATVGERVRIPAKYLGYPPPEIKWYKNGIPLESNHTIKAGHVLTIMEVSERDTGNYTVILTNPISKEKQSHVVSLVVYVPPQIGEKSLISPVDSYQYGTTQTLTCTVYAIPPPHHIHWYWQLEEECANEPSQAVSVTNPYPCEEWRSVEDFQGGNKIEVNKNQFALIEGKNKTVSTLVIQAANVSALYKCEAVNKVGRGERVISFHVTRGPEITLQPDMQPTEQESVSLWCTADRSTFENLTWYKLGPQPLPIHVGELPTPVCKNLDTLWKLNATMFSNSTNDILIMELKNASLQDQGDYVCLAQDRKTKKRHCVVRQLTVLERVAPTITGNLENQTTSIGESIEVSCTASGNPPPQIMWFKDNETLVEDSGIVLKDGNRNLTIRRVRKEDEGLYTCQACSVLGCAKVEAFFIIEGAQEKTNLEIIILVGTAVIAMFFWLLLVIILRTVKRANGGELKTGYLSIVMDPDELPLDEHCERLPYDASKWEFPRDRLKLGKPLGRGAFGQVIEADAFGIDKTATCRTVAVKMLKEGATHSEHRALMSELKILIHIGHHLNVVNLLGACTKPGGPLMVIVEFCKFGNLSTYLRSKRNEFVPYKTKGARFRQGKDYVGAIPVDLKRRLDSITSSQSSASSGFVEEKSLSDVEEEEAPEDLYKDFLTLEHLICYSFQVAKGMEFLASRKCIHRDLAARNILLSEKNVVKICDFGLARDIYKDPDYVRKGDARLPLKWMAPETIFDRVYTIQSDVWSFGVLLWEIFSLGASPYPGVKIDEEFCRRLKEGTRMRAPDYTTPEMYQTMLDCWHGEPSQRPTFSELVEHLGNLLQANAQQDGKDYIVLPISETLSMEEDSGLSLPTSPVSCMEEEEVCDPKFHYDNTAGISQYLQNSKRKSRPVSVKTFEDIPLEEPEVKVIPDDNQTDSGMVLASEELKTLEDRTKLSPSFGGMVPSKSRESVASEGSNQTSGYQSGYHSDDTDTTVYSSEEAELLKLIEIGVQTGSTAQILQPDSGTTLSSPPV

[32] = target: Hepatocyte growth factor receptor (Homo sapiens, UniProt P08581, D1228N); assay: as §1, with “recombinant” for “wild-type”, “c-MET D1228N mutant” for “c-MET”, “end” for “1390”, “Sf9” for “Sf21”
Hepatocyte growth factor receptor (Homo sapiens, UniProt P08581, D1228N), sequence (P08581 25-1390 D1228N limits assumed): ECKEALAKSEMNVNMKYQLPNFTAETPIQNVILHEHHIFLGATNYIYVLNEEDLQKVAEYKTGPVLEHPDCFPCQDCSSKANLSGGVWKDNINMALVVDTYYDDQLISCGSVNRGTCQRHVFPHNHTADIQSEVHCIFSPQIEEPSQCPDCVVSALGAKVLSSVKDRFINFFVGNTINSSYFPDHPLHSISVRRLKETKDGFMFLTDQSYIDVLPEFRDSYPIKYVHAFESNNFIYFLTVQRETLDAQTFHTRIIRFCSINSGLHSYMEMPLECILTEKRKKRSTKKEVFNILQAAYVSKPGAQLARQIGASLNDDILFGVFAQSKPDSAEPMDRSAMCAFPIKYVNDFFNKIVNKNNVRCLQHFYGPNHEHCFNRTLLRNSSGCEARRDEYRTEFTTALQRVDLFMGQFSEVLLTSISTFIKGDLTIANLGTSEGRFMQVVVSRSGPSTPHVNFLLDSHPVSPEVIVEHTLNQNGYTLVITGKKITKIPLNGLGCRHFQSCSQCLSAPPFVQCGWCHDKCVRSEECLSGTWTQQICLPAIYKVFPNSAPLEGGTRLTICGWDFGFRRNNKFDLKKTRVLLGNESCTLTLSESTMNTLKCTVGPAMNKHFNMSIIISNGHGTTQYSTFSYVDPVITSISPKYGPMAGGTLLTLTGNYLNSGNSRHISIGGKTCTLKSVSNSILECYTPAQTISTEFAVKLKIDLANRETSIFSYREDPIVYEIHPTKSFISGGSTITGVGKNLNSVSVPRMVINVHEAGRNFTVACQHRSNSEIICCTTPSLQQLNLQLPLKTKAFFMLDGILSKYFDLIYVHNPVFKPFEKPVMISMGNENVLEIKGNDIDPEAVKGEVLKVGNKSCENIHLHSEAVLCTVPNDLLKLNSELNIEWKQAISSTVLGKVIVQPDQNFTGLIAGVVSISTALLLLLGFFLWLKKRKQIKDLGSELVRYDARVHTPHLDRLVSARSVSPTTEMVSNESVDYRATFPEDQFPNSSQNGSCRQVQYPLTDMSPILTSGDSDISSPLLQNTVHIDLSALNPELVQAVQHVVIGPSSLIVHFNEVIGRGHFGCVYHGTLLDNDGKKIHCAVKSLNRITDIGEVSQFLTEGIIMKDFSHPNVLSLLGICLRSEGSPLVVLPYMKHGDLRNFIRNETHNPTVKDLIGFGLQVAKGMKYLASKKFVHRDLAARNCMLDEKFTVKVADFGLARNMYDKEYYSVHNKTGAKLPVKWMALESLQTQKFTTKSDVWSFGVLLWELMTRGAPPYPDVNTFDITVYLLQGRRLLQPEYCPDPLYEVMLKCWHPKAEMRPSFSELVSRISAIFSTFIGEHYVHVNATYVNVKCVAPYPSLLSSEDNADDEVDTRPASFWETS

[33] = target: Tyrosine-protein kinase receptor UFO (Homo sapiens, UniProt P30530); assay: Inhibition of AXL (unknown origin) by fluorescence-based microfluidic mobility shift assay
[34] = target: Tyrosine-protein kinase Mer (Homo sapiens, UniProt Q12866); assay: Inhibition of MERTK (unknown origin) by fluorescence-based microfluidic mobility shift assay
Tyrosine-protein kinase Mer, sequence (Q12866 whole entry): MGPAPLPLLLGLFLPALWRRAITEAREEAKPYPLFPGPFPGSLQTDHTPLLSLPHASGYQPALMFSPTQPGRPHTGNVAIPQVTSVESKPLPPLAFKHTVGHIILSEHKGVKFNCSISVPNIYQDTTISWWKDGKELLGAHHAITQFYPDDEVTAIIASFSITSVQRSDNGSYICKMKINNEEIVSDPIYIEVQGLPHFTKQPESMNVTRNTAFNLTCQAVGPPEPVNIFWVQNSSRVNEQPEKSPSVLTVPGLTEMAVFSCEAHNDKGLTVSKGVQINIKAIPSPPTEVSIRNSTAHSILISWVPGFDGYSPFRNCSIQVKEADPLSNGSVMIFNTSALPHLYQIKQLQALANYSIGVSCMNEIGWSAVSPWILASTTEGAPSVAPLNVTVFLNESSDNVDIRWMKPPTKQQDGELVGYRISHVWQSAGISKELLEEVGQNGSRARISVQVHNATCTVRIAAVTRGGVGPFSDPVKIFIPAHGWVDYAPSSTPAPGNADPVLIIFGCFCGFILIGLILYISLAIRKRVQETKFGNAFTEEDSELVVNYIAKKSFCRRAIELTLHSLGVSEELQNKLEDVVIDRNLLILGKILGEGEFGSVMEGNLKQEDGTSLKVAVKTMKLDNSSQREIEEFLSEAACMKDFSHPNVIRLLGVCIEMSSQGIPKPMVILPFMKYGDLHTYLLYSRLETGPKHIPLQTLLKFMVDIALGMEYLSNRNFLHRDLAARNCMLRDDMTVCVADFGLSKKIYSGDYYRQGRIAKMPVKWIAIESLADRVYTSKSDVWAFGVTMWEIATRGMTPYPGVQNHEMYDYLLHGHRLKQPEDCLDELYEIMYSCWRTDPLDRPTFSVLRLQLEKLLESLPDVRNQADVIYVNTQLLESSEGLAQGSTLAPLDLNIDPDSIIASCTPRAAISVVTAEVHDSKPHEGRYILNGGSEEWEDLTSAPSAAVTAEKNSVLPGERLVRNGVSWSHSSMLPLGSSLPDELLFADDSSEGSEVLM

[35] = target: Cytochrome P450 3A4 (Homo sapiens, UniProt P08684); assay: Inhibition of CYP3A4 (unknown origin); assay type: ADME

Structure (SMILES) | solubility kinetic [2] | EC50 [3] | solubility kinetic [4] | EC50 [13] | EC50 [17] | EC50 [18] | EC50 [19] | EC50 [20] | EC50 [21] | EC50 [22] | EC50 [23] | EC50 [24] | EC50 [25] | EC50 [26] | EC50 [27] | EC50 [28] | EC50 [29] | IC50 [31] | also measured
COc1cc2c(Oc3c(F)cc(NC(=O)c4cnccc4OC4CC4)cc3F)ccnc2cc1OCCO | 312 µM (≈ 163 µg/mL) | 18 nM | 8.1 µM (≈ 4.24 µg/mL) | 14 nM |  |  |  |  |  |  |  |  |  |  |  |  |  |  | bioavailability [1]: ~100%; inhibition at 10 µM [5]: 13%; inhibition [6]: 22%; inhibition at 10 µM [7]: 50%; inhibition [8]: 57%; inhibition [9]: 96%; inhibition [10]: 69%; inhibition [11]: 4%; inhibition [12]: -1%; inhibition [14]: 81%; inhibition [15]: 99%; clearance [16]: 5.4 mL/min/kg
C[C@@H](c1ccc2nccn2c1)n1nnc2ncc(-c3cnn(C)c3)nc21 [SAVOLITINIB] |  |  |  |  | > 10000 nM | > 10000 nM | 13 nM | 0.5 nM | 7400 nM | 73 nM | 0.5 nM | 1.5 nM | 74 nM | 8.4 nM | > 10000 nM | > 10000 nM | > 10000 nM |  | 
COc1cc2nccc(Oc3ccc(NC(=O)c4ccccc4OC)cc3F)c2cc1OC | 6.1 µM (≈ 2.74 µg/mL) | 1320 nM | 1 µM (≈ 0.448 µg/mL) | 795 nM |  |  |  |  |  |  |  |  |  |  |  |  |  | 250 nM | IC50 [30]: 4.4 nM; IC50 [32]: 2.2 nM
COc1cc2nccc(Oc3c(F)cc(NC(=O)c4cnccc4OC4CC4)cc3F)c2cc1OC | 288 µM (≈ 142 µg/mL) | 43 nM | 4.4 µM (≈ 2.17 µg/mL) | 26 nM |  |  |  |  |  |  |  |  |  |  |  |  |  |  | 
Cc1ccc(C(=O)Nc2ccc(Oc3cc4cnn(C)c4cc3-c3cn[nH]c3)c(F)c2)c(=O)n1-c1ccc(F)cc1 [MERESTINIB] | 0.4 µM (≈ 0.221 µg/mL) | 25 nM | 0.08 µM (≈ 0.0442 µg/mL) | 116 nM | 23 nM | 255 nM | 64 nM | 21 nM | 91 nM | 203 nM | 7.8 nM | 249 nM | 837 nM | 511 nM | 26 nM | 18 nM | 129 nM | 341 nM | IC50 [33]: 0.5 nM; IC50 [34]: 0.5 nM
COc1cc2nccc(Oc3ccc(NC(=O)c4ccncc4OC)cc3F)c2cc1OC |  |  |  |  |  |  |  |  |  |  |  |  |  |  |  |  |  |  | IC50 [35]: 300 nM
